Measured values from PubChem BioAssay (NCI).
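Tested at 5 concentrations; 48 h exposure; 96-well plates; endpoints linearly interpolated, else capped at highest concentration. TGI is the concentration that stops growth completely.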

Experiments:
Assay in all cases: growth of human tumour cells (NCI), 48 h
SK-MEL-28 melanoma = test system: SK-MEL-28 melanoma
SNB-19 CNS = test system: SNB-19 CNS
SK-MEL-2 melanoma = test system: SK-MEL-2 melanoma
IGROV1 ovarian = test system: IGROV1 ovarian
CAKI-1 renal = test system: CAKI-1 renal
DLD-1 colon = test system: DLD-1 colon
OVCAR-4 ovarian = test system: OVCAR-4 ovarian
786-0 renal = test system: 786-0 renal
NCI-H226 lung = test system: NCI-H226 lung
NCI-H23 lung = test system: NCI-H23 lung
OVCAR-3 ovarian = test system: OVCAR-3 ovarian
A498 renal = test system: A498 renal
NCI-H522 lung = test system: NCI-H522 lung
HL-60(TB) leukemia = test system: HL-60(TB) leukemia
UACC-257 melanoma = test system: UACC-257 melanoma
K-562 leukemia = test system: K-562 leukemia
SK-OV-3 ovarian = test system: SK-OV-3 ovarian
SW-620 colon = test system: SW-620 colon
DMS 273 small cell lung = test system: DMS 273 small cell lung
SF-268 CNS = test system: SF-268 CNS
COLO 205 colon = test system: COLO 205 colon
HT29 colon = test system: HT29 colon
DMS 114 small cell lung = test system: DMS 114 small cell lung
OVCAR-5 ovarian = test system: OVCAR-5 ovarian
UO-31 renal = test system: UO-31 renal
ACHN renal = test system: ACHN renal
OVCAR-8 ovarian = test system: OVCAR-8 ovarian
SN12C renal = test system: SN12C renal
HCC-2998 colon = test system: HCC-2998 colon
HOP-18 NSCLC = test system: HOP-18 NSCLC
RXF-631 renal = test system: RXF-631 renal
LOX IMVI melanoma = test system: LOX IMVI melanoma
MALME-3M melanoma = test system: MALME-3M melanoma
SF-539 CNS = test system: SF-539 CNS
TK-10 renal = test system: TK-10 renal
SR leukemia = test system: SR leukemia
HCT-15 colon = test system: HCT-15 colon
HCT-116 colon = test system: HCT-116 colon
MOLT-4 leukemia = test system: MOLT-4 leukemia
M14 melanoma = test system: M14 melanoma
U251 CNS = test system: U251 CNS
UACC-62 melanoma = test system: UACC-62 melanoma
SF-295 CNS = test system: SF-295 CNS
LXFL 529 NSCLC = test system: LXFL 529 NSCLC
M19-MEL melanoma = test system: M19-MEL melanoma
SNB-78 CNS = test system: SNB-78 CNS
SK-MEL-5 melanoma = test system: SK-MEL-5 melanoma
A549 NSCLC = test system: A549 NSCLC
HOP-62 NSCLC = test system: HOP-62 NSCLC
CCRF-CEM leukemia = test system: CCRF-CEM leukemia
EKVX NSCLC = test system: EKVX NSCLC
HOP-92 NSCLC = test system: HOP-92 NSCLC
RPMI-8226 leukemia = test system: RPMI-8226 leukemia
KM20L2 colon = test system: KM20L2 colon
SNB-75 CNS = test system: SNB-75 CNS

Measured: TGI

CCOc1ccc(NC(=O)/C(=C\c2ccc(C)cc2)C(C)=O)cc1
> 100 µM: all assays above
